As usually defined, the IC50 is the midpoint of a concentration-inhibition curve. Higher therefore signals weaker potency.

Bounds are passed on as bounds.

This passage reports IC50 results from patent US20230026856A1, “HETEROCYCLIC COMPOUNDS AND METHODS OF USE THEREOF” (SPARCBIO LLC, priority 2020, published 2023).

For the experiment, the target named is KRAS G12C protein (Homo sapiens, UniProt P01116, G12C). As to the kind of experiment: Nucleotide exchange assay, Method III (TR-FRET, association of KRAS G12C with Raf-RBD, SOS1-mediated exchange). The format is biochemical. As to conditions: overnight (18 hr) incubation with GDP-bound KRAS G12C. As for the experimental part: Method III. Inhibition of SOS1-mediated exchange of GDP for GTP on the KRAS G12C protein was measured in a biochemical assay that monitors association of KRAS G12C protein with the Ras-binding domain of Raf (Raf-RBD), where the association is coupled to exchange of GDP to GTP on the KRAS G12C protein. The assay was performed at WuXi AppTec (Shanghai, China). Compounds were serially diluted in 3-fold dilutions to 11 concentrations and spotted into the wells of an assay plate in a total volume of 150 nL DMSO per well. A 2× enzyme mix was prepared by diluting GDP-bound, His-tagged KRAS G12C to 25 nM in assay buffer. 10 μL/well of 2× enzyme mix was added to all wells, and the plate was sealed and incubated overnight (18 hr) at 23° C. 4×SOS1/GDP and 4×SOS1/GTP were prepared in assay buffer. 5 μL/well of 4×SOS1/GDP mix was added to negative control wells, 5 μL/well of 4×SOS1/GTP mix was added to the remaining wells, and the plate was further incubated at 23° C. for 1 hr. Finally, FLAG-tagged Raf-RBD is added to the reaction mixture along with a pair of FRET donor- and acceptor-conjugated antibodies specific for the FLAG-tagged Raf-RBD and His-tagged KRAS G12C proteins. A 4× Raf-RBD/Tb-anti-FLAG/D2-anti-His mix was prepared in assay buffer, and 5 μL/well of the mix was added to all wells, followed by incubation at room temperature for 2 hr. The TR-FRET signals, which increase with association of KRAS G12C and Raf-RBD, were measured on a Perkin Elmer Envision 2104 plate reader, and data were analyzed by non-linear regression to obtain IC50 values for inhibition by compounds. Table 2 includes results of the assay of Method III. ‘+++’ indicates IC50 values ≤300 nM, ‘++’ indicates IC50 values between 300 nM-3 μM, and ‘+’ indicates IC50 values ≥3 μM.
Sequence of KRAS G12C protein (P01116 1-188 isoform P01116-2 G12C): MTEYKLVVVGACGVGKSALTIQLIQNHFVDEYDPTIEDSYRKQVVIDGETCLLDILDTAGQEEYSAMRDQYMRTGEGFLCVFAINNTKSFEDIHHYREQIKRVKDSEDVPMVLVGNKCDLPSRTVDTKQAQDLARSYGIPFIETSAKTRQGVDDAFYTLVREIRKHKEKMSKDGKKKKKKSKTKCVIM
(In general: TR-FRET usually uses a lanthanide donor and a delayed reading to cut background.)
`C=CC(=O)N1CCN(c2c(S(C)(=O)=O)c(=O)n(-c3c(C)ccnc3C(C)C)c3nc(-c4c(O)cccc4F)c(F)cc23)C[C@H]1C` (single isomer, unassigned) [143 (Isomer A)] gave an IC50 of 300 to 3000 nM.
`C=CC(=O)N1CCN(c2c(C(=O)NC)c(=O)n(-c3c(C)ccnc3C(C)C)c3nc(-c4c(C)ccc5[nH]ncc45)c(F)cc23)CC1` (single isomer, unassigned) [116 (Isomer B), 4-(4-acryloylpiperazin-1-yl)-6-fluoro-1-(2-isopropyl-4-methylpyridin-3-yl)-N-methyl-7-(5-methyl-1H-indazol-4-yl)-2-oxo-1,2-dihydro-1,8-naphthyridine-3-carboxamide] came in with an IC50 of 300 to 3000 nM.
For the compound `C=CC(=O)N1CCN(c2c(S(C)(=O)=O)c(=O)n(-c3c(C)ccnc3C(C)C)c3c(F)c(-c4c(C)ccc5[nH]ncc45)c(Cl)cc23)CC1` (single isomer, unassigned) [187 (Isomer B), 4-(4-acryloylpiperazin-1-yl)-6-chloro-8-fluoro-1-(2-isopropyl-4-methylpyridin-3-yl)-7-(5-methyl-1H-indazol-4-yl)-3-(methylsulfonyl)quinolin-2(1H)-one], the IC50 is at most 300 nM.
The compound `C=CC(=O)N1CCN(c2c(S(C)(=O)=O)c(=O)n(-c3c(C)ccnc3C(C)C)c3nc(-c4c(C)ccc5[nH]ncc45)c(F)cc23)CC1` (single isomer, unassigned) [124 (Isomer B), 4-(4-acryloylpiperazin-1-yl)-6-fluoro-1-(2-isopropyl-4-methylpyridin-3-yl)-7-(5-methyl-1H-indazol-4-yl)-3-(methylsulfonyl)-1,8-naphthyridin-2(1H)-one] came in with a 50% inhibitory concentration (IC50) of at least 3000 nM.
The compound `C=CC(=O)N1CCN(c2c(S(C)(=O)=O)c(=O)n(-c3c(C)ccnc3C(C)C)c3c(F)c(-c4c(C)ccc5[nH]ncc45)c(Cl)cc23)CC1` (single isomer, unassigned) [187 (Isomer D), 4-(4-acryloylpiperazin-1-yl)-6-chloro-8-fluoro-1-(2-isopropyl-4-methylpyridin-3-yl)-7-(5-methyl-1H-indazol-4-yl)-3-(methylsulfonyl)quinolin-2(1H)-one] displayed an IC50 of at least 3000 nM.
For `C=CC(=O)N1CCN(c2c(S(C)(=O)=O)c(=O)n(-c3c(C)ccnc3C(C)C)c3c(F)c(-c4cccc5sc(N)nc45)c(Cl)cc23)CC1` (single isomer, unassigned) [252 (Isomer A), 4-(4-acryloylpiperazin-1-yl)-7-(2-aminobenzo[d]thiazol-4-yl)-6-chloro-8-fluoro-1-(2-isopropyl-4-methylpyridin-3-yl)-3-(methylsulfonyl)quinolin-2(1H)-one], the IC50 was at most 300 nM.
`C=CC(=O)N1CCN(c2c(S(C)(=O)=O)c(=O)n(-c3c(C)ccnc3C(C)C)c3c(F)c(-c4c(O)cccc4F)c(Cl)cc23)CC1` (single isomer, unassigned) [176 (Isomer C), 4-(4-acryloylpiperazin-1-yl)-6-chloro-8-fluoro-7-(2-fluoro-6-hydroxyphenyl)-1-(2-isopropyl-4-methylpyridin-3-yl)-3-(methylsulfonyl)quinolin-2(1H)-one] showed a half-maximal inhibitory concentration (IC50) of 300 to 3000 nM.
With `C=CC(=O)N1CCN(c2c(S(C)(=O)=O)c(=O)n(-c3c(C)ccnc3C(C)C)c3c(F)c(-c4c(O)cccc4F)c(Cl)cc23)CC1` (single isomer, unassigned) [176 (Isomer A), 4-(4-acryloylpiperazin-1-yl)-6-chloro-8-fluoro-7-(2-fluoro-6-hydroxyphenyl)-1-(2-isopropyl-4-methylpyridin-3-yl)-3-(methylsulfonyl)quinolin-2(1H)-one] the figure was at least 3000 nM.
Consider `C=CC(=O)N1CCC(c2c(C(=O)NC)c(=O)n(-c3c(C)ccnc3C(C)C)c3nc(-c4c(O)cccc4F)c(F)cc23)CC1` (single isomer, unassigned) [68 (Isomer A), 4-(1-acryloylpiperidin-4-yl)-6-fluoro-7-(2-fluoro-6-hydroxyphenyl)-1-(2-isopropyl-4-methylpyridin-3-yl)-N-methyl-2-oxo-1,2-dihydro-1,8-naphthyridine-3-carboxamide], for which the concentration for half-maximal inhibition (IC50) is 300 to 3000 nM.
`C=CC(=O)N1CCN(c2c(C(=O)NC)c(=O)n(-c3c(C)ccnc3C(C)C)c3nc(-c4cccc5sc(N)nc45)c(F)cc23)CC1` (single isomer, unassigned) [254 (Isomer B), 4-(4-acryloylpiperazin-1-yl)-7-(2-aminobenzo[d]thiazol-4-yl)-6-fluoro-1-(2-isopropyl-4-methylpyridin-3-yl)-N-methyl-2-oxo-1,2-dihydro-1,8-naphthyridine-3-carboxamide] registered an IC50 of at most 300 nM.
The figure for `C=CC(=O)N1CCC(n2c(=O)c(=O)n(-c3c(C)ccnc3C(C)C)c3nc(-c4c(O)cccc4F)c(F)cc32)C[C@@H]1C` (single isomer, unassigned) [4 (Isomer B)] is at least 3000 nM.
`C=CC(=O)N1CCN(c2c(C(=O)NC)c(=O)n(-c3c(C)ccnc3C(C)C)c3nc(-c4c(O)cccc4F)c(F)cc23)[C@@H](C)C1` (single isomer, unassigned) [76 (Isomer B)] yielded an IC50 of at least 3000 nM.
Turning to `C=CC(=O)N1CCN(c2c(S(C)(=O)=O)c(=O)n(-c3c(C)ccnc3C(C)C)c3nc(-c4c(O)cccc4F)c(F)cc23)C[C@H]1C` (single isomer, unassigned) [143 (Isomer B)], the IC50 is at most 300 nM.
Compound `C=CC(=O)N1CCC(n2c(=O)c(=O)n(-c3c(C)ccnc3C(C)C)c3nc(-c4c(O)cccc4F)c(F)cc32)C(C)C1` (single isomer, unassigned) [294 (Isomer F), 1-(1-acryloyl-3-methylpiperidin-4-yl)-7-fluoro-6-(2-fluoro-6-hydroxyphenyl)-4-(2-isopropyl-4-methylpyridin-3-yl)-1,4-dihydropyrido[2,3-b]pyrazine-2,3-dione] registered a concentration for half-maximal inhibition (IC50) of 300 to 3000 nM.
As for `C=CC(=O)N1CCN(c2c(C(=O)NC)c(=O)n(-c3c(C)ccnc3C(C)C)c3nc(-c4cccc5sc(N)nc45)c(F)cc23)C[C@H]1C` (single isomer, unassigned) [253 (Isomer A)], the IC50 is at most 300 nM.
`C=CC(=O)N1CCN(c2c(S(C)(=O)=O)c(=O)n(-c3c(C)ccnc3C(C)C)c3nc(-c4cccc5sc(N)nc45)c(F)cc23)CC1` (single isomer, unassigned) [250 (Isomer B), 4-(4-acryloylpiperazin-1-yl)-7-(2-aminobenzo[d]thiazol-4-yl)-6-fluoro-1-(2-isopropyl-4-methylpyridin-3-yl)-3-(methylsulfonyl)-1,8-naphthyridin-2(1H)-one]: the IC50 is 300 to 3000 nM.
With `C=CC(=O)N1CCC(n2c(=O)c(=O)n(-c3c(C)ccnc3C(C)C)c3nc(-c4c(O)cccc4F)c(F)cc32)C[C@H]1C` (single isomer, unassigned) [2 (Isomer A)], the IC50 is at least 3000 nM.
The figure for `C=CC(=O)N1CCN(c2c(C(=O)NC)c(=O)n(-c3c(C)ccnc3C(C)C)c3nc(-c4c(C)ccc5[nH]ncc45)c(F)cc23)C[C@H]1C` (single isomer, unassigned) [114 (Isomer B)] is at most 300 nM.
The figure for `C=CC(=O)N1CCN(c2c(C(=O)NC)c(=O)n(-c3c(C)ccnc3C(C)C)c3nc(-c4c(O)cccc4F)c(F)cc23)C[C@@H]1CC#N` (single isomer, unassigned) [80 (Isomer B)] is 300 to 3000 nM; for `C=CC(=O)N1CCN(c2c(S(C)(=O)=O)c(=O)n(-c3c(C)ccnc3C(C)C)c3c(F)c(-c4c(O)cccc4F)c(Cl)cc23)CC1` (single isomer, unassigned) [176 (Isomer B), 4-(4-acryloylpiperazin-1-yl)-6-chloro-8-fluoro-7-(2-fluoro-6-hydroxyphenyl)-1-(2-isopropyl-4-methylpyridin-3-yl)-3-(methylsulfonyl)quinolin-2(1H)-one] it is at most 300 nM.
In the case of `C=CC(=O)N1CCN(c2c(S(C)(=O)=O)c(=O)n(-c3c(C)ccnc3C(C)C)c3nc(-c4cccc5sc(N)nc45)c(F)cc23)C[C@H]1C` (single isomer, unassigned) [249 (Isomer B)], the IC50 lay within 300 to 3000 nM.
In the case of `C=CC(=O)N1CCC(c2c(C(=O)NC)c(=O)n(-c3c(C)ccnc3C(C)C)c3nc(-c4c(O)cccc4F)c(F)cc23)CC1` (single isomer, unassigned) [68 (Isomer B), 4-(1-acryloylpiperidin-4-yl)-6-fluoro-7-(2-fluoro-6-hydroxyphenyl)-1-(2-isopropyl-4-methylpyridin-3-yl)-N-methyl-2-oxo-1,2-dihydro-1,8-naphthyridine-3-carboxamide], the IC50 is at least 3000 nM.
Compound `C=CC(=O)N1CCN(c2c(C(=O)NC)c(=O)n(-c3c(C)ccnc3C(C)C)c3nc(-c4c(C)ccc5[nH]ncc45)c(F)cc23)C[C@H]1C` (single isomer, unassigned) [114 (Isomer A)] showed an IC50 of 300 to 3000 nM.
